The source of these data is US10710992B2, “Substituted pyridinones as bromodomain inhibitors” (Zenith Epigenetics Ltd., priority 2014, dated 2020).

Assay [1] has as its target T1, Brd4 bromodomain 1 (BRD4(1)) (Homo sapiens, UniProt O60885).
T1 construct: made in house; host or cells: E. coli BL21(DE3)
Description: Inhibition of tetra-acetylated histone H4 binding to BET bromodomain (HTRF/FRET). The settings on record: His-tagged bromodomain 200 nM, tetra-acetylated histone H4 peptide, 2 h room temperature. The method, then:
Proteins were cloned and overexpressed with a N-terminal 6× His tag, then purified by nickel affinity followed by size exclusion chromatography. Briefly, E. coli BL21(DE3) cells were transformed with a recombinant expression vector encoding N-terminally Nickel affinity tagged bromodomains from Brd2, Brd3, Brd4. Cell cultures were incubated at 37° C. with shaking to the appropriate density and induced overnight with IPTG. The supernatant of lysed cells was loaded onto Ni-IDA column for purification. Eluted protein was pooled, concentrated and further purified by size exclusion chromatography. Fractions representing monomeric protein were pooled, concentrated, aliquoted, and frozen at −80° C. for use in subsequent experiments.
Binding of tetra-acetylated histone H4 and BET bromodomains was confirmed by a Homogenous Time Resolved Fluorescence Resonance Energy Transfer (HTRF®) method. N-terminally His-tagged bromodomains (200 nM) and biotinylated tetra-acetylated historic H4 peptide (25-50 nM, Millipore) were incubated in the presence of Europium Cryptate-labeled streptavidin (Cisbio Cat. #610SAKLB) and XL665-labeled monoclonal anti-His antibody (Cisbio Cat. #61HISXLB) in a white 96 well microtiter plate (Greiner). For inhibition assays, serially diluted test compound was added to these reactions in a 0.2% final concentration of DMSO. Duplicate wells were used for each concentration tested. Final buffer concentrations were 30 mM HEPES pH 7.4, 30 mM NaCl, 0.3 mM CHAPS, 20 mM phosphate pH 7.0, 320 mM KF, 0.08% BSA. After a 2 h incubation at room temperature, fluorescence was measured at 665 and 620 nm with a SynergyH4 plate reader (Biotek). The binding inhibitory activity was shown by a decrease in 665 nm relative to […] fluorescence. IC50 values were determined from a dose response curve.
A general note: Time-resolved FRET reads energy transfer from a long-lived donor to a nearby acceptor.

The test system of assay [2] is c-myc in Human AML MV4-11 cells. Description: Inhibition of cMYC expression in cancer cell lines (mRNA, real-time PCR). It is filed as cell-based. The settings on record: 3 h, cMYC mRNA normalized to Cyclophilin; for IC50: Homo sapiens. The method, then: MV4-11 cells (CRL-9591) were plated at a density of 2.5×10^4 cells per well in 96 well U-bottom plates and treated with increasing concentrations of test compound or DMSO (0.1%) in IMDM media containing 10% FBS and penicillin/streptomycin, and incubated for 3 h at 37° C. Triplicate wells were used for each concentration. Cells were pelleted by centrifugation and harvested using the mRNA Catcher PLUS kit according to manufacturer's instructions. The eluted mRNA isolated was then used in a one-step quantitative real-time PCR reaction, using components of the RNA UltraSense™ One-Step Kit (Life Technologies) together with Applied Biosystems TaqMan® primer-probes for cMYC and Cyclophilin. Real-time PCR plates were run on a ViiA™ 7 real time PCR machine (Applied Biosystems), data was analyzed, normalizing the Ct values for cMYC to an internal control, prior to determining the fold expression of each sample, relative to the control.
(In general: Real-time PCR tracks product formation cycle by cycle.)

Another assay concerns Human AML MV-4-11 cells. Description: Inhibition of cell proliferation in cancer cell lines (CellTiter Aqueous One). It is filed as cell-based. The conditions noted are these: MV4-11 cells, 72 h; for IC50: Homo sapiens. As for the experimental part:
MV4-11 cells (CRL-9591) were plated at a density of 5×10^4 cells per well in 96 well flat bottom plates and treated with increasing concentrations of test compound or DMSO (0.1%) in IMDM media containing 10% FBS and penicillin/streptomycin. Triplicate wells were used for each concentration and a well containing only media was used as a control. Plates were incubated at 37° C., 5% CO2 for 72 h before adding 20 μL of the CellTiter Aqueous One Solution (Promega) to each well and incubated at 37° C., 5% CO2 for an additional 3-4 h. The absorbance was read at 490 nm in a spectrophotometer and the percentage of cell titer relative to DMSO-treated cells was calculated after correcting for background by subtracting the blank well's signal. IC50 values were calculated using the GraphPad Prism software.

In the next assay the test system is hIL-6 mRNA. Description: Inhibition of hIL-6 mRNA transcription in LPS-stimulated U937 cells. It is filed as cell-based. The settings on record: Homo sapiens, U-937; PMA-differentiated U937 cells, 1 h pretreatment, LPS 1 ug/mL, 3 h; read-out: IL-6 activity. As for the experimental part:
Human leukemic monocyte lymphoma U937 cells (CRL-1593.2) were plated at a density of 3.2×10^4 cells per well in a 96-well plate in 100 μL RPMI-1640 containing 10% FBS and penicillin/streptomycin, and differentiated into macrophages for 3 days in 60 ng/mL PMA ([…]) at 37° C. in 5% CO2 prior to the addition of compound. The cells were pretreated for 1 h with increasing concentrations of test compound in 0.1% DMSO prior to stimulation with 1 ug/mL lipopolysaccharide from Escherichia coli. Triplicate wells were used for each concentration. The cells were incubated at 37° C., 5% CO2 for 3 h before the cells were harvested. At time of harvest, media was removed and cells were rinsed in 200 μL PBS. Cells were harvested using the mRNA Catcher PLUS kit according to manufacturer's instructions. The eluted mRNA was then used in a one-step quantitative real-time PCR reaction using components of the RNA UltraSense™ One-Step Kit (Life Technologies) together with Applied Biosystems TaqMan® primer-probes for hIL-6 and Cyclophilin. Real-time PCR plates were run on a ViiA™ 7 real time PCR machine (Applied Biosystems), data was analyzed, normalizing the Ct values for hIL-6 to an internal control, prior to determining the fold expression of each sample, relative to the control.

Turning to `Cc1noc(C)c1-c1c[nH]c(=O)c(NCc2ccc(C(F)(F)F)cc2)c1` [Example 10, 5-(3,5-dimethylisoxazol-4-yl)-3-((4-(trifluoromethyl)benzyl)amino)pyridin-2(1H)-one], the IC50 in assay [1] lay within 0.3 to 3 µM; in assay [2], 3 to 30 µM; in the assay with Human AML MV-4-11 cells, 3 to 30 µM; in the assay on hIL-6 mRNA, 0.3 to 3 µM.

Regarding `Cc1noc(C)c1-c1c[nH]c(=O)c(NCc2ccc(I)cc2)c1` [Example 24, 5-(3,5-dimethylisoxazol-4-yl)-3-((4-iodobenzyl)amino)pyridin-2(1H)-one], the IC50 in assay [1] is not above 0.3 µM; in the assay on hIL-6 mRNA, 3 to 30 µM. Besides, in assay [2], the c-myc activity result is reported as “Not Active”. In addition, the “Cell Proliferation activity” value with Human AML MV-4-11 cells is listed as “Not Active”.

On to `Cc1noc(C)c1-c1c[nH]c(=O)c(NCc2ccc3ccccc3n2)c1` [Example 35, 5-(3,5-dimethylisoxazol-4-yl)-3-((quinolin-2-ylmethyl)amino)pyridin-2(1H)-one], for which the IC50 in assay [1] was not above 0.3 µM; in assay [2] it was 3 to 30 µM; in the assay with Human AML MV-4-11 cells, 0.3 to 3 µM; in the assay with hIL-6 mRNA, 0.3 to 3 µM.

In the case of `Cc1ncccc1Oc1cc(-c2c(C)noc2C)cnc1O` [Example 43, 5-(3,5-dimethylisoxazol-4-yl)-3-((2-methylpyridin-3-yl)oxy)pyridin-2-ol], the IC50 in assay [1] lay within 0.3 to 3 µM; with hIL-6 mRNA it was 3 to 30 µM. Besides, the c-myc activity entry in assay [2] is “Not Active”. The “Cell Proliferation activity” value in the assay on Human AML MV-4-11 cells is on record as “Not Active”.

Take `Cc1noc(C)c1-c1c[nH]c(=O)c(NCc2ncccc2Cl)c1` [Example 37, 3-(((3-chloropyridin-2-yl)methyl)amino)-5-(3,5-dimethylisoxazol-4-yl)pyridin-2(1H)-one]: the IC50 (in assay [1]; in the assay with hIL-6 mRNA) was 0.3 to 3 µM each time. Moreover, the c-myc activity result in assay [2] is “Not Active”. In the assay on Human AML MV-4-11 cells, the “Cell Proliferation activity” value is recorded as “Not Active”.

Regarding `Cc1noc(C)c1-c1c[nH]c(=O)c(N[C@H](C)c2ccccn2)c1` (single isomer, unassigned) [Example 42], the IC50 in assay [1] is not above 0.3 µM; with Human AML MV-4-11 cells, 0.3 to 3 µM; in the assay on hIL-6 mRNA it was 0.3 to 3 µM. For the same compound, the c-myc activity entry in assay [2] was “Not Active”.

On to `Cc1noc(C)c1-c1c[nH]c(=O)c(NCc2cccc3ncccc23)c1` [Example 39, 5-(3,5-dimethylisoxazol-4-yl)-3-((quinolin-5-ylmethyl)amino)pyridin-2(1H)-one], for which the IC50 in assay [1] was not above 0.3 µM; in assay [2], 0.3 to 3 µM; in the assay on Human AML MV-4-11 cells it was 0.3 to 3 µM; with hIL-6 mRNA, not above 0.3 µM.

For `Cc1noc(C)c1-c1c[nH]c(=O)c(NCc2ccsc2)c1` [Example 13, 5-(3,5-dimethylisoxazol-4-yl)-3-((thiophen-3-ylmethyl)amino)pyridin-2(1H)-one], the IC50 was not above 0.3 µM in assay [1], 0.3 to 3 µM in assay [2], 0.3 to 3 µM with Human AML MV-4-11 cells and 0.3 to 3 µM in the assay with hIL-6 mRNA.

Consider `Cc1noc(C)c1-c1c[nH]c(=O)c(OCc2ccccc2)c1` [Example 14, 3-(benzyloxy)-5-(3,5-dimethylisoxazol-4-yl)pyridin-2(1H)-one], for which the IC50 fell in the range of 0.3 to 3 µM in assay [1], 3 to 30 µM in assay [2], 3 to 30 µM with Human AML MV-4-11 cells and 0.3 to 3 µM in the assay with hIL-6 mRNA.

Regarding `Cc1noc(C)c1-c1c[nH]c(=O)c(N[C@@H](C)c2ccccn2)c1` (single isomer, unassigned) [Example 41], the IC50 in assay [1] was not above 0.3 µM; in assay [2], 3 to 30 µM; with Human AML MV-4-11 cells, 3 to 30 µM; in the assay on hIL-6 mRNA it was 0.3 to 3 µM.

On to `Cc1noc(C)c1-c1c[nH]c(=O)c(NCc2nc3ccccc3s2)c1` [Example 40, 3-((benzo[d]thiazol-2-ylmethyl)amino)-5-(3,5-dimethylisoxazol-4-yl)pyridin-2(1H)-one], for which the IC50 was in the range of 0.3 to 3 µM in assay [1], 0.3 to 3 µM in assay [2], 3 to 30 µM in the assay with Human AML MV-4-11 cells and 0.3 to 3 µM in the assay with hIL-6 mRNA.

On to `Cc1noc(C)c1-c1c[nH]c(=O)c(NCc2ccncc2)c1` [Example 11, 5-(3,5-dimethylisoxazol-4-yl)-3-((pyridin-4-ylmethyl)amino)pyridin-2(1H)-one], for which the IC50 in assay [1] was in the range of 0.3 to 3 µM; in assay [2] it was 3 to 30 µM; with Human AML MV-4-11 cells, 3 to 30 µM; in the assay on hIL-6 mRNA, 0.3 to 3 µM.

`Cc1noc(C)c1-c1c[nH]c(=O)c(OCc2ccc(F)cc2)c1` [Example 27, 5-(3,5-dimethylisoxazol-4-yl)-3-((4-fluorobenzyl)oxy)pyridin-2(1H)-one]: the IC50 lay in the range of 0.3 to 3 µM in assay [1], 0.3 to 3 µM in assay [2], 3 to 30 µM in the assay on Human AML MV-4-11 cells and 0.3 to 3 µM in the assay with hIL-6 mRNA.

With `Cc1noc(C)c1-c1c[nH]c(=O)c(NCc2ccc(C#N)s2)c1` [Example 36, 5-(((5-(3,5-dimethylisoxazol-4-yl)-2-oxo-1,2-dihydropyridin-3-yl)amino)methyl)thiophene-2-carbonitrile], the IC50 is not above 0.3 µM in assay [1], 3 to 30 µM in assay [2], 3 to 30 µM in the assay with Human AML MV-4-11 cells and 0.3 to 3 µM with hIL-6 mRNA.

On to `Cc1noc(C)c1-c1c[nH]c(=O)c(NCc2ccc(C#N)cc2)c1` [Example 9, 4-(((5-(3,5-dimethylisoxazol-4-yl)-2-oxo-1,2-dihydropyridin-3-yl)amino)methyl)benzonitrile], for which the IC50 in assay [1] was not above 0.3 µM; in assay [2], 0.3 to 3 µM; in the assay on Human AML MV-4-11 cells, 3 to 30 µM; in the assay on hIL-6 mRNA, 0.3 to 3 µM.
